Measured values reported in patent publication US20250197368A1 (priority 2020, published 2025).

Tests used:
[1] = molecular target: human α3β3γ2 GABAARs (benzodiazepine site) (Homo sapiens (Human), UniProt P18507+P34903); test: In vitro radioligand binding assay ([3H]Ro15-1788 displacement), α3-GABAAR Ki; conditions: L(tk-) cell membranes, 4 nM [3H]Ro15-1788
Description: The affinity (Ki) of compounds for the benzodiazepine site of human recombinant GABAARs was measured by their ability to inhibit the binding of the selective benzodiazepine antagonist [^3H]Ro15-1788 ([^3H] flumazenil).
Mouse L(tk^−) cells stably expressing human α1β3γ2, α2β3γ2, α3β3γ2, α5β3γ2 GABAARs were generated by transfection of the individual subunits in the dexamethasone-inducible expression vector pMSGneo in mouse L(tk^−) cells (Hadingham et al., 1993, Mol. Pharmacol. 43:970-975 and 1993, Mol. Pharmacol. 44:1211-1218).
L(tk^−) cells stably expressing human α1β3γ2, α2β3γ2, α3β3γ2, α5β3γ2 GABAARs were maintained in DMEM F12 medium supplemented with 10% Foetal Bovine Serum, 1% Penicillin/Streptomycin and 1 mg/mL Geneticin G418 in an incubator at 37° C. with a humidified atmosphere with 5% CO2. Dexamethasone was added to the culture medium to induce GABAAR expression.
L(tk−) cells were harvested and membranes were prepared for each receptor combination in either TE buffer (10 mM Tris·CI/0.1 mM EDTA, pH 7.5) or phosphate buffer (K2PO4 10 mM, pH 7.0) (Hadingham et al. (1992) Proc. Natl. Acad. Sci. USA; 89 (14): 6378-82). Protein concentration, receptor expression and the Kd of [^3H]Ro15-1788 were determined before Ki value of the compounds were evaluated. For Kd evaluation, saturation binding curves were obtained by incubating membrane with various concentrations of [^3H]Ro15-1788 (82.5 Ci/mM), with nonspecific binding measured in the presence of 1-3 μM TP003.
For Ki evaluation, cell membranes were incubated with 4 nM [^3H]Ro15-1788 along with a range of concentrations of test compound. Nonspecific binding was determined using 1-3 μM TP003. All incubations were performed for 1 hour at 4° C. in assay buffer. The total assay volume was 0.5 mL, containing 40 μg/well α1β3γ2, 30 μg/well α2β3γ2, 40 μg/well α3β3γ2 and 30 μg/well for α5β3γ2 of membrane protein. Incubations were terminated by filtration and washing with ice cold Tris-HCl buffer (50 mM, pH=7.4) over Whatman GF/B filters and the radioactivity of the filters was measured using liquid scintillation counting.
The % inhibition of [^3H]Ro15-1788 binding was plotted as a function of compound concentration and the IC50 calculated. From the IC50, the affinity (Ki) was calculated using the method of Cheng and Prusoff using the Kd values obtained for [^3H]Ro15-1788.

[2] = system: human α2β3γ2 GABAARs; test: In vitro electrophysiological recording assay (automated patch-clamp), α2-GABAAR relative efficacy; type: cell-based; conditions: % efficacy normalised to diazepam; GABA EC10-20; concentration generally >= 100 times Ki
In short: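 Automated whole-cell patch clamp at 20-22° C on L(tk^−) cells (QPatch, −65 mV) or HEK293 cells (SyncroPatch, −80 mV) stably expressing the human receptor. Compound pre-applied ≥1 min, then co-applied with GABA EC10-20; % potentiation of leak-corrected peak current, normalised to diazepam, typically at ≥100× Ki.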

[3] = system: human α3β3γ2 GABAARs; test: In vitro electrophysiological recording assay (automated patch-clamp), α3-GABAAR relative efficacy; type: cell-based; conditions: % efficacy normalised to diazepam; GABA EC10-20; concentration generally >= 100 times Ki
Description: The efficacy of modulators was evaluated using the automated patch-clamp platforms QPatch16 (Sophion, Copenhagen, Denmark) or SyncroPatch 384PE (Nanion, Germany).
For QPatch electrophysiology testing L(tk^−) cells stably expressing human α1β3γ2, α2β3γ2, α3β3γ2, α5β3γ2 GABAARs were used. HEK293 cells stably expressing human α1β3γ2L, α2β3γ2L, α3β3γ2L and α5β3γ2L GABAARs were used for the SyncroPatch 384PE experiments.
All experiments were carried out at room temperature (20-22° C.) using a standard whole cell procedure and physiological solutions. Gigaseals were formed upon execution of a combined suction/voltage protocol with subsequent increased suction leading to the whole-cell configuration.
The currents recorded were acquired at either 1 KHz or 2 KHz and filtered using a Bessel filter. Whole-cell currents were measured at a holding potential of-65 mV (QPatch) or −80 mV (SyncroPatch).
For QPatch experiments, the extracellular solution contained of: 145 mM NaCl, 4 mM KCl, 1 mM MgCl2, 2 mM CaCl2), 10 mM HEPES, 10 mM D-glucose (pH 7.4), and the intracellular solution consisted of: 96 mM KCl, 28 mM CsCl, 25 mM KOH, 4.3 mM CaCl2), 1.4 mM MgCl2, 10 mM EGTA, 10 mM HEPES, 3 mM MgATP (pH 7.2). The osmolarities of the extracellular and intracellular solutions were 305 and 295 mOsm respectively.
For SyncroPatch experiments, the extracellular recording solution contained: 140 mM NaCl, 4 mM KCl, 2 mM CaCl2), 1 mM MgCl2, 10 mM HEPES, 5 mM glucose (pH 7.4 with NaOH and osmolarity of c. 300-310 mOsm). The intracellular recording solution consisted of: 90 mM KCl, 50 mM KF, 1.5 mM MgCl2, 11.1 mM EGTA and 10 mM HEPES (pH 7.2 with KOH and osmolarity of c. 300 mOsm). 2 mM of NaATP was added to the intracellular solution on the day of testing.
The effects of modulators were evaluated in the presence of a submaximal GABA concentration, giving typically less than 30% activation of the response elicited by a saturating GABA concentration. To check and ensure baseline current stability before compound addition, two to five consecutive applications of GABA EC10-20 separated by wash steps were performed before compound addition. The test compound was applied 1 min at least prior to co-application with GABA EC10-20. Following a further wash step, a saturating concentration of GABA was applied at the end of each recording, allowing the accurate evaluation for each cell of the percentage baseline activation elicited by the submaximal GABA applied.
The compounds were first dissolved in DMSO as a 10 mM stock and then further diluted to the testing concentrations so that the final DMSO concentration in the extracellular recording solution was 0.1% (QPatch) or 0.2% (SyncroPatch).
The % efficacy of modulators was determined from the GABA elicited currents recorded in the presence and absence of the test compound, using the formula:
[((compound peak current−leak)−(GABA peak current-leak))/(GABA peak current−leak)]*100,
where ‘leak’ is the leak baseline current at the holding potential, ‘compound peak current’ is the current elicited by co-application of compound and GABA, and ‘GABA peak current’ is the current elicited by GABA alone at the last GABA application before compound addition. The results were presented as ‘relative efficacy’ for each compound generally at a concentration equal or higher than 100 times their determined Ki. The relative efficacy of a compound was calculated by normalising its % efficacy to the corresponding % efficacy of diazepam that was separately determined.

[4] = molecular target: human α2β3γ2 GABAARs (benzodiazepine site) (Homo sapiens (Human), UniProt P18507+P47869); test: In vitro radioligand binding assay ([3H]Ro15-1788 displacement), α2-GABAAR Ki
human α2β3γ2 GABAARs (benzodiazepine site), sequence (P47869 29-451): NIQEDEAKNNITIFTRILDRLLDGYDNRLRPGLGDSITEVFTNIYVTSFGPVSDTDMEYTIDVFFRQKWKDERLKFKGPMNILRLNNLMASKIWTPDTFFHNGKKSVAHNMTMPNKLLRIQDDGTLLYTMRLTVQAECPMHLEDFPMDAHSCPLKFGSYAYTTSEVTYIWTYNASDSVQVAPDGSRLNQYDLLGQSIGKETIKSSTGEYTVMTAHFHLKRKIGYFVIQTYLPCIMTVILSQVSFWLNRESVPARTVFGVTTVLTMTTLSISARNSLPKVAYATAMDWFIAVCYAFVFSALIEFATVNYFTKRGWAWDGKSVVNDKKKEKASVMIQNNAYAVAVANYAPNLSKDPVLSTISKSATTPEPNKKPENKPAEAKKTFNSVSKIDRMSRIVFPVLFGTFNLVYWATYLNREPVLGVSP
human α2β3γ2 GABAARs (benzodiazepine site), sequence (P28472 26-473 partner): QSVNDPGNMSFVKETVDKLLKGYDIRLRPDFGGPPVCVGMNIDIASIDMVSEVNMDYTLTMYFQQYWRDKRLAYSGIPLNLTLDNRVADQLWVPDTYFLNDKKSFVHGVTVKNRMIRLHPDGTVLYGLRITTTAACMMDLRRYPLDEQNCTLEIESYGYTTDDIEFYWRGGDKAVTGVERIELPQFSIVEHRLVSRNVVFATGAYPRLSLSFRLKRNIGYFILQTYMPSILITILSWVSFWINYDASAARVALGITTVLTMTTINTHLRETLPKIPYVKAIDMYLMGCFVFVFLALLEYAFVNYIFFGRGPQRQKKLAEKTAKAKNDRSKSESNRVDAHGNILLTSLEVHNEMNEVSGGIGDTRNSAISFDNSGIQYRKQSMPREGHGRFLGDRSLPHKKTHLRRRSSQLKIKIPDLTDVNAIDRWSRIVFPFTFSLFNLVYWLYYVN
human α2β3γ2 GABAARs (benzodiazepine site), sequence (P18507 40-475): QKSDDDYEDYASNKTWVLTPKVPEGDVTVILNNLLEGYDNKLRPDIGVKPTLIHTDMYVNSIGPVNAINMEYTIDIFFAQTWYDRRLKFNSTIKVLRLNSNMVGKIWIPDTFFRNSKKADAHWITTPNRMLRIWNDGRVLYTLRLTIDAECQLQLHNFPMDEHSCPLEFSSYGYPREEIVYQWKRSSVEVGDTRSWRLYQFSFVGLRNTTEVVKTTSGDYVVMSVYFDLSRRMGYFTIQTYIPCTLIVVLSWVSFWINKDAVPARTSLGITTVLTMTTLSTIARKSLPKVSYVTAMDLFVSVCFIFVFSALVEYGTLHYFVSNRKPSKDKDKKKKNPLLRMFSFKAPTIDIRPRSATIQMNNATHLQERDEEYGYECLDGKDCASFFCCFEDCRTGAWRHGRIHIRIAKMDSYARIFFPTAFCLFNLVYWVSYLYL
In short: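 Membranes from dexamethasone-induced mouse L(tk−) cells stably expressing the human receptor were incubated 1 h at 4° C with 4 nM [3H]Ro15-1788 and graded compound; nonspecific binding with 1-3 μM TP003. Filter-bound radioactivity counted; Ki from IC50 by Cheng-Prusoff using the measured radioligand Kd.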

| SMILES | Ki [1] [nM] | α2-GABAAR Relative Efficacy (vs. Diazepam) [2] | α3-GABAAR Relative Efficacy (vs. Diazepam) [3] | Ki [4] [nM] |
| --- | --- | --- | --- | --- |
| CCCNC(=O)c1c(N)c2cccc(-c3cc(OCc4c[nH]cn4)ccc3F)c2[nH]c1=O [Example 124, 8-(5-((1H-Imidazol-4-yl)methoxy)-2-fluorophenyl)-4-amino-2-oxo-N-propyl-1,2-dihydroquinoline-3-carboxamide] | 1.55 | 0.28 | 0.34 | 0.98 |
| CCCNC(=O)c1c(N)c2cccc(-c3cc(CN4CCN(C)CC4)ccc3F)c2[nH]c1=O [Example 137, 4-Amino-8-[2-fluoro-5-[(4-methylpiperazin-1-yl)methyl]phenyl]-2-oxo-N-propyl-1H-quinoline-3-carboxamide] | 8.07 | 0.42 | 0.53 | 3 |
| CCCNC(=O)c1c(N)c2cccc(-c3nc(CN4CCN(C)CC4)ccc3F)c2[nH]c1=O [Example 138, 4-Amino-8-(3-fluoro-6-((4-methylpiperazin-1-yl)methyl)pyridin-2-yl)-2-oxo-N-propyl-1,2-dihydroquinoline-3-carboxamide] | 4.99 | 0.17 | 0.42 | 1.87 |
| CCCNC(=O)c1c(N)c2cccc(-c3cc(CN4CCC5(CCN(C)C5)C4)ccc3F)c2[nH]c1=O (centres unmarked) [Example 142, 4-Amino-8-(2-fluoro-5-((7-methyl-2,7-diazaspiro[4.4]nonan-2-yl)methyl)phenyl)-2-oxo-N-propyl-1,2-dihydroquinoline-3-carboxamide] | 6.35 | 0.24 | 0.27 | 3.6 |
| CCCNC(=O)c1c(N)c2cccc(-c3cc(CN4CCC5(CCN(C)CC5)C4)ccc3F)c2[nH]c1=O [Example 143, 4-Amino-8-(2-fluoro-5-((8-methyl-2,8-diazaspiro[4.5]decan-2-yl)methyl)phenyl)-2-oxo-N-propyl-1,2-dihydroquinoline-3-carboxamide] | 10.1 | 0.32 | 0.11 | 1.8 |
